The record followed here is patent US6716866B2, “Aryl-benzimidazole compounds having antiinfective activity” (GeneSoft Pharmaceuticals, Inc., priority 2001, dated 2004).

The structures appear in SMILES notation.

Common to all, as to format: cell-based
The test system of one assay is S. aureus ATCC 33591. Nature of the assay: MIC against drug-resistant bacteria, S. aureus ATCC 33591. As to conditions: organism C = S. aureus ATCC 33591, methycillin resistant strain (MRSA). The method, then: (§1) Compounds according to this invention were screened for their in vitro activities against selected species of bacteria and fungi. The minimal inhibition concentration (MIC) of these compounds was determined using the National Committee for Clinical Laboratory Standards (NCCLS) broth microdilution assay in microtiter plates, as set forth in: (1) the guidelines of the National Committee for Clinical Laboratory Standards (NCCLS) Document M7-A4 (NCCLS, 1997); (2) the guidelines of the National Committee for Clinical Laboratory Standards (NCCLS) Document M11-A4 (NCCLS, 1997); and (3) the guidelines and reference method of the National Committee for Clinical Laboratory Standards (NCCLS) Document M27-T (NCCLS, 1995). For antifungal essays, the method recommended in Murray, PR., 1995 Manual of Clinical Microbiology (ASM Press, Washington, D.C.), was employed.
(§2) Further, compounds (I) are effective against drug-resistant bacteria, as evidenced by the data in Table 2 below:
(§3) ATCC 27660 and ATCC 33591 are methycillin resistant strains of S. aureus (MRSA's). ATCC 51559 is a vancomycin resistant strain of E. faecium (VRE). ATCC 12228 is a methycillin resistant strain of S. epidermis (MRSE). ATCC 51422 is a penicillin resistant strain of S. pneumoniae.

The test system of another assay is E. faecium ATCC 51559. Kind of assay: MIC against drug-resistant bacteria, E. faecium ATCC 51559. The settings on record: organism A = E. faecium ATCC 51559, vancomycin resistant strain (VRE). The method, then:
as §1, §2, §3

The next assay concerns S. pneumoniae ATCC 51422. Nature of the assay: MIC against drug-resistant bacteria, S. pneumoniae ATCC 51422. The settings on record: organism E = S. pneumoniae ATCC 51422, penicillin resistant strain. As for the experimental part:
as §1, §2, §3

The test system of another assay is S. epidermis ATCC 12228. Kind of assay: MIC against drug-resistant bacteria, S. epidermis ATCC 12228. The settings on record: organism D = S. epidermis ATCC 12228, methycillin resistant strain (MRSE). As for the experimental part:
as §1, §2, §3

Another assay deals with S. aureus ATCC 27660. Kind of assay: MIC against drug-resistant bacteria, S. aureus ATCC 27660. The settings on record: organism B = S. aureus ATCC 27660, methycillin resistant strain (MRSA). The method, then:
as §1, §2, §3

On to `Cn1cc(NC(=O)c2sccc2Cl)cc1C(=O)Nc1cc(-c2nc3ccc(C(=O)NCCN4CCSCC4)cc3[nH]2)n(C)c1` [Compound I-38], for which the “Minimum Inhibitoty Concentration (MIC)” value with S. aureus ATCC 33591, with E. faecium ATCC 51559, in the assay on S. pneumoniae ATCC 51422, in the assay with S. epidermis ATCC 12228 and in the assay on S. aureus ATCC 27660 was “+++ (MIC ≦4)” in each case.

As to `Cn1cc(NC(=O)c2ccc(Cl)cc2F)cc1C(=O)Nc1cc(-c2nc3ccc(C(=O)NCCN4CCOCC4)cc3[nH]2)n(C)c1` [Compound I-13], the “Minimum Inhibitoty Concentration (MIC)” value in the assay with S. aureus ATCC 33591, in the assay on E. faecium ATCC 51559, in the assay with S. pneumoniae ATCC 51422, in the assay on S. epidermis ATCC 12228 and with S. aureus ATCC 27660 was “+++ (MIC ≦4)” in each case.

Take `Cn1cc(NC(=O)c2ccc(F)cc2F)cc1C(=O)Nc1cc(-c2nc3ccc(C(=O)NCCN4CCSCC4)cc3[nH]2)n(C)c1` [Compound I-20]: the “Minimum Inhibitoty Concentration (MIC)” value with S. aureus ATCC 33591, in the assay on E. faecium ATCC 51559, in the assay on S. pneumoniae ATCC 51422, in the assay on S. epidermis ATCC 12228 and in the assay with S. aureus ATCC 27660 was “+++ (MIC ≦4)” in each case.

Turning to `Cn1cc(NC(=O)c2ccc(F)cc2F)cc1C(=O)Nc1cc(-c2nc3ccc(C(=O)NCCN4CCOCC4)cc3[nH]2)n(C)c1` [Compound I-19], the “Minimum Inhibitoty Concentration (MIC)” value with S. aureus ATCC 33591, with E. faecium ATCC 51559, in the assay with S. pneumoniae ATCC 51422, in the assay on S. epidermis ATCC 12228 and in the assay on S. aureus ATCC 27660 was “+++ (MIC ≦4)” throughout.

As to `CN(C)CCCNC(=O)c1ccc2nc(-c3cc(NC(=O)c4cc(NC(=O)c5cc6ccccc6cn5)cn4C)cn3C)[nH]c2c1` [Compound I-33], the “Minimum Inhibitoty Concentration (MIC)” value in the assay on S. aureus ATCC 33591, in the assay with E. faecium ATCC 51559, in the assay with S. pneumoniae ATCC 51422, with S. epidermis ATCC 12228 and with S. aureus ATCC 27660 was “+++ (MIC ≦4)” each time.

For `CCN(CC)CCNC(=O)c1ccc2nc(-c3cc(NC(=O)c4cc(NC(=O)c5sc6ccccc6c5Cl)cn4C)cn3C)[nH]c2c1` [Compound I-25], in the assay on S. aureus ATCC 27660, the “Minimum Inhibitoty Concentration (MIC)” value is listed as “+++ (MIC ≦4)”.

Regarding `CCOC(=O)c1ccc2nc(-c3cc(NC(=O)c4cc(NC(=O)c5ccc(F)cc5NCCN5CCCCC5)cn4C)cn3C)[nH]c2c1` [Compound I-18], the “Minimum Inhibitoty Concentration (MIC)” value in the assay with S. aureus ATCC 27660 is “+++ (MIC ≦4)”.

For `CCN(CC)CCCNC(=O)c1ccc2nc(-c3cc(NC(=O)c4cc(NC(=O)c5cc6ccccc6cn5)cn4C)cn3C)[nH]c2c1` [Compound I-37], the “Minimum Inhibitoty Concentration (MIC)” value in the assay on S. aureus ATCC 33591 and in the assay with S. aureus ATCC 27660 was “+++ (MIC ≦4)” in each case.

As to `Cn1cc(NC(=O)c2ccc3nc(-c4cc(NC(=O)c5cc6ccccc6cn5)cn4C)[nH]c3c2)cc1C(=O)NCCN1CCOCC1` [Compound I-31], the “Minimum Inhibitoty Concentration (MIC)” value with S. aureus ATCC 33591, with E. faecium ATCC 51559, with S. pneumoniae ATCC 51422, in the assay on S. epidermis ATCC 12228 and in the assay with S. aureus ATCC 27660 was “+++ (MIC ≦4)” each time.

Take `CCN(CC)CCNC(=O)c1ccc2nc(-c3cc(NC(=O)c4cc(NC(=O)c5cc6ccccc6cn5)cn4C)cn3C)[nH]c2c1` [Compound I-27]: the “Minimum Inhibitoty Concentration (MIC)” value in the assay with E. faecium ATCC 51559, in the assay on S. epidermis ATCC 12228 and in the assay with S. aureus ATCC 27660 was “+++ (MIC ≦4)” in each case.

For `CCOC(=O)c1ccc2nc(-c3cc(NC(=O)c4cc(NC(=O)c5ccc(F)cc5NCCN5CCSCC5)cn4C)cn3C)[nH]c2c1` [Compound I-17], in the assay with S. aureus ATCC 27660, the “Minimum Inhibitoty Concentration (MIC)” value is given as “+++ (MIC ≦4)”.

Regarding `Cn1cc(NC(=O)c2ccc(Cl)cc2F)cc1C(=O)Nc1cc(-c2nc3ccc(C(=O)NCCN4CCSCC4)cc3[nH]2)n(C)c1` [Compound I-14], the “Minimum Inhibitoty Concentration (MIC)” value in the assay with S. aureus ATCC 33591, in the assay on E. faecium ATCC 51559, in the assay on S. pneumoniae ATCC 51422, with S. epidermis ATCC 12228 and with S. aureus ATCC 27660 was “+++ (MIC ≦4)” throughout.

Take `C[C@@H]1CN(CCNC(=O)c2ccc3nc(-c4cc(NC(=O)c5cc(NC(=O)c6sc7ccccc7c6Cl)cn5C)cn4C)[nH]c3c2)C[C@H](C)O1` [Compound I-26]: the “Minimum Inhibitoty Concentration (MIC)” value is “+ (MIC from 12 to 32, inclusive)” in the assay on S. aureus ATCC 33591; “+++ (MIC ≦4)” in the assay on E. faecium ATCC 51559; “+++ (MIC ≦4)” in the assay on S. pneumoniae ATCC 51422; “+++ (MIC ≦4)” with S. epidermis ATCC 12228; “+++ (MIC ≦4)” in the assay with S. aureus ATCC 27660.

As to `Cn1cc(NC(=O)c2ccc3nc(-c4cc(NC(=O)c5ccc(F)cc5F)cn4C)[nH]c3c2)cc1C(=O)NCCN1CCOCC1` [Compound I-39], the “Minimum Inhibitoty Concentration (MIC)” value in the assay on S. aureus ATCC 33591, with E. faecium ATCC 51559, with S. pneumoniae ATCC 51422, in the assay with S. epidermis ATCC 12228 and in the assay on S. aureus ATCC 27660 was “+++ (MIC ≦4)” in each case.

Take `Cn1cc(NC(=O)c2sc3ccccc3c2Cl)cc1C(=O)Nc1cc(-c2nc3ccc(C(=O)NCCN4CCSCC4)cc3[nH]2)n(C)c1` [Compound I-23]: the “Minimum Inhibitoty Concentration (MIC)” value in the assay with S. aureus ATCC 33591 was “++ (MIC between 4 and 12)”; in the assay on E. faecium ATCC 51559 it was “+++ (MIC ≦4)”; with S. pneumoniae ATCC 51422, “+++ (MIC ≦4)”; in the assay on S. epidermis ATCC 12228 it was “+++ (MIC ≦4)”; in the assay with S. aureus ATCC 27660, “+++ (MIC ≦4)”.

For `Cn1cc(NC(=O)c2cc3ccccc3cn2)cc1C(=O)Nc1cc(-c2nc3ccc(C(=O)NCCN4CCSCC4)cc3[nH]2)n(C)c1` [Compound I-30], the “Minimum Inhibitoty Concentration (MIC)” value with E. faecium ATCC 51559, in the assay with S. epidermis ATCC 12228 and with S. aureus ATCC 27660 was “+++ (MIC ≦4)” in each case.

On to `Cn1cc(NC(=O)c2sc3ccccc3c2Cl)cc1C(=O)Nc1cc(-c2nc3ccc(C(=O)NCCN4CCCCC4)cc3[nH]2)n(C)c1` [Compound I-24], for which the “Minimum Inhibitoty Concentration (MIC)” value in the assay on S. aureus ATCC 27660 was “+++ (MIC ≦4)”.

Regarding `Cn1cc(NC(=O)c2ccc3nc(-c4cc(NC(=O)c5ccc(Cl)cc5F)cn4C)[nH]c3c2)cc1C(=O)NCCN1CCCCC1` [Compound I-28], the “Minimum Inhibitoty Concentration (MIC)” value in the assay with E. faecium ATCC 51559, in the assay on S. epidermis ATCC 12228 and with S. aureus ATCC 27660 was “+++ (MIC ≦4)” each time.

Turning to `COCn1cc(NC(=O)c2ccc3nc(-c4cc(NC(=O)c5sccc5Cl)cn4C)[nH]c3c2)cc1C(=O)NCCN1CCSCC1` [Compound I-34], the “Minimum Inhibitoty Concentration (MIC)” value in the assay on S. aureus ATCC 33591 and with S. epidermis ATCC 12228 was “+++ (MIC ≦4)” in each case.

Take `CCOC(=O)c1ccc2nc(-c3cc(NC(=O)c4cc(NC(=O)c5ccc(F)cc5NCCN5CCOCC5)cn4C)cn3C)[nH]c2c1` [Compound I-16]: in the assay with S. aureus ATCC 27660, the “Minimum Inhibitoty Concentration (MIC)” value is listed as “+ (MIC from 12 to 32, inclusive)”.
